In patent US20240148819A1, “COMPOUNDS FOR USE IN THE TREATMENT OF SINUSITIS, PNEUMONIA OR OTITIS” (PHARMA HOLDINGS AS, priority 2021, published 2024):
In brackets after ≈: the same amount, converted by molar mass. Several values for one entry are separate records, joined by “and”; a condition that tells them apart may be missing. Equal entries are not always repeated. Where two headings read alike, the source gives them in different places.

Tests used:
[1] = system: SARS-CoV-2 Isolate England02/2020; format: cell-based
Pseudomonas aeruginosa = Pseudomonas aeruginosa - ATCC 27853 - antibiotic-susceptible type strain; three replicates (frozen and fresh MHB plates)
Description: (§1) Bacterial and fungal isolates used in this study were from various sources worldwide stored at GR Micro Ltd. and maintained, with minimal sub-culture, deep frozen at −70° C. as a dense suspension in a high protein matrix of undiluted horse serum.
Minimum inhibitory concentration (MIC) of LTX-109 was determined using the following microbroth dilution methods for antimicrobial susceptibility testing published by the Clinical and Laboratory Standards Institute (CLSI, formerly NCCLS): • M7-A6 Vol. 23 No. 2 Jan. 2003 Methods for Dilution Antimicrobial Susceptibility Tests for Bacteria that Grow Aerobically; Approved Standard-Sixth Edition. National Committee for Clinical Laboratory Standards. • M100-S15 Vol. 25 No 1. January 2005 Performance Standards for Antimicrobial Susceptibility Testing; Fifteenth Informational Supplement. Clinical and Laboratory Standards Institute • M11-A6 Vol. 24 No. 2 Methods for Antimicrobial Susceptibility Testing of Anaerobic Bacteria; Approved Standard-Sixth Edition. National Committee for Clinical Laboratory Standards. • M27-A2 Vol. 22 No. 15 Reference Method for Broth Dilution Antifungal Susceptibility Testing of Yeasts; Approved Standard-Second Edition. […] National Committee for Clinical Laboratory Standards.
MIC estimations were performed using wet plates, containing the LTX-109, prepared at GR Micro Ltd. […]

Rhinovirus 60, 2268-CV37 [2] = experiment: TCID50 assay after 1 h incubation of virus with 3% LTX-109, stopped by dilution (Example 7); format: cell-based
Candida tropicalis = Candida tropicalis - ATCC750 - reference strain
Description: as §1
(§2) Minimum inhibitory concentration (MIC) of LTX-109 was determined using the following microbroth dilution methods for antimicrobial susceptibility testing published by the Clinical and Laboratory Standards Institute (CLSI, formerly NCCLS): • M7-A6 Vol. 23 No. 2 Jan. 2003 Methods for Dilution Antimicrobial Susceptibility Tests for Bacteria that Grow Aerobically; Approved Standard-Sixth Edition. National Committee for Clinical Laboratory Standards. • M100-S15 Vol. 25 No 1. January 2005 Performance Standards for Antimicrobial Susceptibility Testing; Fifteenth Informational Supplement. Clinical and Laboratory Standards Institute • M11-A6 Vol. 24 No. 2 Methods for Antimicrobial Susceptibility Testing of Anaerobic Bacteria; Approved Standard-Sixth Edition. National Committee for Clinical Laboratory Standards. • M27-A2 Vol. 22 No. 15 Reference Method for Broth Dilution Antifungal Susceptibility Testing of Yeasts; Approved Standard-Second Edition. National Committee for Clinical Laboratory Standards. • M38-A Vol. 22 No. 16 Reference Method for Broth Dilution Antifungal Susceptibility Testing of Filamentous Fungi; Approved Standard. National Committee for Clinical Laboratory Standards.
(§3) MIC estimations were performed using wet plates, containing the LTX-109, prepared at GR Micro Ltd.
(§4) Yeast and filamentous fungal MIC were performed in MOPS buffered RPMI 1640 medium (MOPS buffer obtained from Sigma Aldrich Ltd., RPMI 1640 obtained from Invitrogen Ltd, Paisley, Scotland). The yeast inocula were in the range 7.5×10^2-4×10^3 CFU/mL and the filamentous fungi approximately 8×10^3-1×10^5 CFU/mL.
(§5) Following normal practice all the plates containing Mueller-Hinton broth were prepared in advance, frozen at −70° C. on the day of preparation and defrosted on the day of use. Fungal, Haemophilus and anaerobic MIC determinations were all performed in plates prepared on the same day.

Candida albicans = system: Candida albicans
Description: as §1, §2, §3, §4, §5

Candida krusei = Candida krusei - ATCC6258 - reference strain
Description: as §1, §2, §3, §4, §5

Aspergillus niger = Aspergillus niger - G. R. Micro collection
Description: as §1, §2, §3, §4, §5

Candida parapsilosis = Candida parapsilosis - ATCC90018 - reference strain
Description: as §1, §2, §3, §4, §5

Haemophilus influenzae = system: Haemophilus influenzae
Description: as §1, §2, §3, §5

Rhinovirus 60, 2268-CV37 [3] = experiment: TCID50 assay after 1 h incubation of virus with 1% LTX-109 (Example 6); format: cell-based
Streptococcus pyogenes = Streptococcus pyogenes - macrolide (MLS) resistant clinical isolate
Description: as §1, §2, §3
(§6) Cation-adjusted Mueller-Hinton broth (Oxoid Ltd., Basingstoke, UK and Trek Diagnostic Systems Ltd., East Grinstead, UK) (supplemented with 5% laked horse blood for Streptococcus spp.) was used for aerobic bacteria, with an initial inoculum of approximately 10^5 colony-forming units (CFU)/mL.
as §5

Streptococcus pneumoniae = system: Streptococcus pneumoniae
Description: as §1, §2, §3, §6, §5

Moraxella catarrhalis = system: Moraxella catarrhalis
Description: as §1, §2, §3, §6, §5

Hep2 cells = settings: 1 h, after filtration, no virus
Description: (§7) A parallel test where the same procedure was carried out in the absence of virus was included to determine any residual cytotoxic effect of the formulation on the assay cells.

Vero cells = settings: 1% LTX-109 (w/v), 1 h, after filtration, no virus
Description: as §7

With `CC(C)(C)c1cc(C(C)(C)C)c2[nH]c(C(C)(C)C)c(CC(NC(=O)C(N)CCCNC(=N)N)C(=O)NC(CCCNC(=N)N)C(=O)NCCc3ccccc3)c2c1` (stereo not shown) [LTX-109] the Log [1] was 2.28, the Percentage [1] was 99.99% and 99.995% and the MIC (Pseudomonas aeruginosa) was 8 mg/L (≈ 10.2 µM). The Log decrease (Rhinovirus 60, 2268-CV37 [2]; Rhinovirus, 3% LTX-109 or 0.25% SDS, 1 hour, compared to PBS control) was 1.9 log, the Percentage (Rhinovirus 60, 2268-CV37 [2]; decrease in Rhinovirus infectivity, 3% LTX-109 or 0.25% SDS, 1 hour, compared to PBS control) was 98.87% and the Log (Rhinovirus 60, 2268-CV37 [2]; log of Rhinovirus titre after 1 hour with 3% LTX-109 or 0.25% SDS) was 2.3. For the same compound, the MIC (Candida tropicalis) was 4 mg/L (≈ 5.08 µM), the MIC (Candida albicans; Candida albicans - ATCC24433 - reference strain) was 8 mg/L (≈ 10.2 µM) and the MIC (Candida albicans; Candida albicans - ATCC90028 - reference strain) was 8 mg/L (≈ 10.2 µM). It also gave an MIC (Candida krusei) of 4 mg/L (≈ 5.08 µM), an MIC (Aspergillus niger) of 8 mg/L (≈ 10.2 µM) and an MIC (Candida parapsilosis) of 16 mg/L (≈ 20.3 µM). The MIC (Haemophilus influenzae; Haemophilus influenzae - β-lactamase negative clinical isolate) was 8 mg/L (≈ 10.2 µM), the MIC (Haemophilus influenzae; Haemophilus influenzae - β-lactamase negative, ampicillin resistant) was 8 mg/L (≈ 10.2 µM) and the MIC (Haemophilus influenzae; Haemophilus influenzae - β-lactamase positive clinical isolate) was 8 mg/L (≈ 10.2 µM). For the same compound, the Log decrease (Rhinovirus 60, 2268-CV37 [3]; Rhinovirus, 1% LTX-109 or 0.25% SDS, 1 hour, compared to PBS control) was 1.9 log, the Percentage (Rhinovirus 60, 2268-CV37 [3]; decrease in Rhinovirus infectivity, 1% LTX-109 or 0.25% SDS, 1 hour, compared to PBS control) was 98.89% and the Log (Rhinovirus 60, 2268-CV37 [3]; log of Rhinovirus titre after 1 hour with 1% LTX-109 or 0.25% SDS) was 3.7. For the same compound, the MIC (Streptococcus pyogenes) was 16 mg/L (≈ 20.3 µM), the MIC (Streptococcus pneumoniae; Streptococcus pneumoniae - multi-drug resistant clinical isolate) was 32 mg/L (≈ 40.6 µM) and the MIC (Streptococcus pneumoniae; Streptococcus pneumoniae - penicillin intermediate clinical isolate) was 32 mg/L (≈ 40.6 µM). It also gave an MIC (Streptococcus pneumoniae; Streptococcus pneumoniae - penicillin resistant clinical isolate) of 16 mg/L (≈ 20.3 µM), an MIC (Streptococcus pneumoniae; Streptococcus pneumoniae - penicillin susceptible clinical isolate) of 32 mg/L (≈ 40.6 µM) and an MIC (Moraxella catarrhalis; Moraxella catarrhalis - reduced fluoroquinolone susceptibility clinical isolate) of 8 mg/L (≈ 10.2 µM). The MIC (Moraxella catarrhalis; Moraxella catarrhalis - β-lactamase positive clinical isolate) was 4 mg/L (≈ 5.08 µM), the “With Filtration (cytotoxicity)” value (Hep2 cells; 0.1% LTX-109 (w/v)) was “No cytotoxicity” and the “With Filtration (cytotoxicity)” value (Hep2 cells; 1% LTX-109 (w/v)) was “Up to 10^−1”. For the same compound, the “With Filtration (cytotoxicity)” value (Vero cells) was “Up to 10^−1”.
